“Also recorded” adds a separate entry of the source.
Assay: Solubility observations in D2O / water
Format: physicochemical
Experimental: The supernatants were characterized by DOSY NMR and UV-Vis. ^1H-NMR was used to observe the amount of drug loaded into the RNTs at various time points. All the NMR experiments were conducted on a Varian Direct Drive 600 MHz spectrometer with a dual broadband probe. UV-vis spectra were recorded on an Agilent 8453. After this series of spectral analyses were completed, CD3OD was evaporated using a stream of nitrogen and replaced with the same volume of deuterated water (D2O).
Each solution (3 mL) was placed in a 1 cm×1 cm cuvette for UV-Vis experiments. In another series of experiments the solutions were prepared at the same concentration in D2O and analyzed by UV-Vis spectroscopy.

## C[C@@H]1C[C@H]2[C@@H]3CCC4=CC(=O)C=C[C@]4(C)[C@@]3(F)[C@@H](O)C[C@]2(C)[C@@]1(O)C(=O)CO [DEX, dexamethasone]
  solubility in water: insoluble; also recorded: precipitates in water
